Columns and labels:
[1] = Inhibition of reverse transcriptase L100I mutant in HIV-1 infected in human MT4 cells assessed as reduction in virus-induced cytopathic effect incubated for 5 days by MTT assay
[2] = Inhibition of reverse transcriptase E138K mutant in HIV-1 infected in human MT4 cells assessed as reduction in virus-induced cytopathic effect incubated for 5 days by MTT assay
[3] = Inhibition of reverse transcriptase F227L/V106A double mutant in HIV-1 infected in human MT4 cells assessed as reduction in virus-induced cytopathic effect incubated for 5 days by MTT assay
[4] = Inhibition of reverse transcriptase Y188L mutant in HIV-1 infected in human MT4 cells assessed as reduction in virus-induced cytopathic effect incubated for 5 days by MTT assay
[5] = Inhibition of reverse transcriptase K103N mutant in HIV-1 infected in human MT4 cells assessed as reduction in virus-induced cytopathic effect incubated for 5 days by MTT assay

| SMILES | EC50 [1] | EC50 [2] | EC50 [3] | EC50 [4] | EC50 [5] |
| --- | --- | --- | --- | --- | --- |
| Cc1cc(/C=C/C#N)cc(C)c1Oc1nc(Nc2ccc(CN3CCN(S(N)(=O)=O)CC3)cc2)nc2ccsc12 | 43 nM | 26 nM | 175 nM | 544 nM | – |
| Cc1cc(/C=C/C#N)cc(C)c1Oc1nc(Nc2ccc(CN3CCN(S(C)(=O)=O)CC3)cc2)nc2ccsc12 | 1560 nM | 983 nM | 2200 nM | > 20700 nM | 356 nM |
| Cc1cc(/C=C/C#N)cc(C)c1Oc1nc(Nc2ccc(CN3CCN(S(N)(=O)=O)CC3)cc2)nc2sccc12 | 15 nM | 25 nM | 369 nM | 877 nM | 7 nM |
| Cc1cc(/C=C/C#N)cc(C)c1Oc1nc(Nc2ccc(CN3CCN(S(C)(=O)=O)CC3)cc2)nc2sccc12 | 387 nM | 162 nM | 1640 nM | 9410 nM | 54 nM |
| Cc1cc(/C=C/C#N)cc(C)c1Oc1nc(Nc2ccc(N3CCN(S(N)(=O)=O)CC3)cc2)nc2ccsc12 | 767 nM | 43 nM | 203 nM | 23100 nM | 21 nM |
| Cc1cc(/C=C/C#N)cc(C)c1Oc1nc(Nc2ccc(N3CCN(S(C)(=O)=O)CC3)cc2)nc2ccsc12 | 938 nM | 88 nM | 285 nM | 5110 nM | 56 nM |
| Cc1cc(/C=C/C#N)cc(C)c1Oc1nc(Nc2ccc(N3CCN(S(N)(=O)=O)CC3)cc2)nc2sccc12 | 409 nM | 50 nM | 331 nM | 10100 nM | 31 nM |
| Cc1cc(/C=C/C#N)cc(C)c1Oc1nc(Nc2ccc(N3CCN(S(C)(=O)=O)CC3)cc2)nc2sccc12 | 3320 nM | 405 nM | 1950 nM | 68400 nM | 219 nM |
| Cc1cc(/C=C/C#N)cc(C)c1Oc1nc(Nc2ccc(N3CCCC(NS(N)(=O)=O)C3)cc2)nc2ccsc12 (stereo unspecified) | 1660 nM | 123 nM | 381 nM | 6750 nM | 102 nM |
| Cc1cc(/C=C/C#N)cc(C)c1Oc1nc(Nc2ccc(N3CCCC(NS(C)(=O)=O)C3)cc2)nc2ccsc12 (stereo unspecified) | 6820 nM | 1280 nM | 16800 nM | 150000 nM | – |
| Cc1cc(/C=C/C#N)cc(C)c1Oc1nc(Nc2ccc(N3CCCC(NS(N)(=O)=O)C3)cc2)nc2sccc12 (stereo unspecified) | 2330 nM | 621 nM | 3640 nM | 88200 nM | 450 nM |
| Cc1cc(/C=C/C#N)cc(C)c1Oc1nc(Nc2ccc(N3CCCC(NS(C)(=O)=O)C3)cc2)nc2sccc12 (stereo unspecified) | 8520 nM | 4270 nM | – | – | 1360 nM |
